Measured values published in ChEMBL document CHEMBL5543084, “Development of cannabidiol derivatives as potent broad-spectrum antibacterial agents with membrane-disruptive mechanism” (Eur J Med Chem, 2024).
In brackets after ≈: the same amount, converted by molar mass.

System: Staphylococcus aureus
Assay: Antibacterial activity against methicillin-resistant Staphylococcus aureus NCTC 10442 assessed as inhibition of bacterial growth incubated for 24 hrs by broth dilution method
Assay type: functional

Structure (SMILES): C=C(C)[C@@H]1CCC(C)=C[C@H]1c1c(OCCCNC(=N)N)cc(CCCCC)cc1OCCCNC(=N)N
- MIC: 0.78 µg/mL (≈ 1.52 µM)
